From PMC10349806 (Nature Communications, 2023)
Where “and” joins values, the source holds several entries; their conditions need not be identical. Equal entries are not always repeated.

Target: PfCRT^Dd2 (Plasmodium falciparum, UniProt Q9N623, A220S/I356T/K76T/M74I/N326S/N75E/Q271E/R371I)
Assay: Drug uptake assay, X. laevis oocytes expressing PfCRT^Dd2
Type: cell-based
Details: for v-1 pH 4.5 / v-1 pH 5.0 / v-1 pH 5.5 / v-1 pH 6.0: Lineweaver-Burk
Description: Oocytes were obtained as described previously. Briefly, adult (>2 years old) female X. laevis frogs (NASCO) were anesthetized in a cooled solution of ethyl 3-amino benzoate methanesulfonate (0.1%, w/v), followed by a surgical removal of parts of the ovary. The ovary lobes were carefully dissected and small pieces of oocytes were incubated in Ca^2+-free ND96 buffer (96 mM NaCl, 2 mM KCl, 1 mM MgCl2 buffered with 5 mM HEPES/NaOH, pH 7.5) supplemented with collagenase D (0.1%, w/v; Roche), BSA (0.5%, w/v), and 9 mm Na2HPO4 at 18 °C for 14-16 h while gentle shaking. After incubation, the oocytes were carefully washed several times with ND96 buffer (96 mM NaCl, 2 mM KCl, 1.8 mM CaCl2, 1 mM MgCl2 buffered with 5 mM HEPES/NaOH, pH 7.5) supplemented with 100 mg l^−1 gentamycin). Defolliculated and healthy-looking stage V-VI oocytes were manually selected for RNA microinjection. The RNA was generated as following: The codon-optimized sequences of PfCRT variants were cloned into the pSP64T expression vector. After vector linearization using the restriction endonucleases BamHI or SalI (New England Biolabs), transcription was performed using the in vitro SP6 mMessage mMachine Kit (Ambion)[34]. The obtained RNA was kept at −80 °C and diluted with nuclease-free water to a concentration of 0.6 μg μl^−1. Precision-bore glass capillary tubes (3.5-inch glass capillaries; Drummond Scientific Co.) were pulled on a vertical puller (P-87 Flaming/Brown micropipette puller, Sutter Instrument Co.), graduated, and placed on a microinjector (Nanoject II Auto-Nanoliter Injector, Drummond Scientific Co.). 50 nl of nuclease-free water alone (control oocytes) or 50 nl of 0.6 μg μl^−1 RNA were injected under stereomicroscopic control. Injected oocytes were incubated for 46–72 h at 18 °C with twice-daily buffer changes before usage in experiments.
Drug uptake assays were performed as described previously[21],[22],[24],[34]. […] The direction of radio-labeled drug transport is here from the mostly acidic extracellular solution (pH 4.5 or 6.0, as indicated) into the oocyte cytosol (pH ∼ 7.2), which corresponds to the efflux of drug from the acidic digestive vacuole (pH 5.2) into the parasite cytoplasm (pH 7.2). The topology of PfCRT in the oolemma is such that both the N- and C-terminus face the extracellular milieu[3],[22]. In the parasite, the N- and C-terminus face the lumen of the digestive vacuole. […] For determination of the amount of drug uptake for each oocyte, the reaction medium was removed and the oocytes were washed three times with 2 ml of ice-cold ND96 buffer. Each oocyte was individually transferred to a scintillation vial containing 5% sodium dodecyl sulfate (200 μl) for lysis. […] Oocytes that were injected with water instead of RNA were analyzed in parallel, representing the uptake of a drug by diffusion and/or endogenous permeation pathways. The resulting value represents the “background“ level of drug accumulation in oocytes (in-depth discussion in[22]). The specific PfCRT-mediated uptake was determined by subtracting the corresponding background value measured in water-injected oocytes from that of PfCRT-expressing oocytes. In all cases, at least three separate experiments were performed on oocytes from different frogs (biological replicate), and for each condition in an experiment, measurements were made from 10 oocytes per treatment. For pH 5.5, 6.0, and 6.5, ND96 was buffered with 5 mM MES/Tris base. For pH 4.5, 5 mM Homo-Pipes was used as a buffer and 5 mM HEPES for uptake at pH 7.0.

Chain of PfCRT^Dd2 (Q9N623 whole entry A220S/I356T/K76T/M74I/N326S/N75E/Q271E/R371I): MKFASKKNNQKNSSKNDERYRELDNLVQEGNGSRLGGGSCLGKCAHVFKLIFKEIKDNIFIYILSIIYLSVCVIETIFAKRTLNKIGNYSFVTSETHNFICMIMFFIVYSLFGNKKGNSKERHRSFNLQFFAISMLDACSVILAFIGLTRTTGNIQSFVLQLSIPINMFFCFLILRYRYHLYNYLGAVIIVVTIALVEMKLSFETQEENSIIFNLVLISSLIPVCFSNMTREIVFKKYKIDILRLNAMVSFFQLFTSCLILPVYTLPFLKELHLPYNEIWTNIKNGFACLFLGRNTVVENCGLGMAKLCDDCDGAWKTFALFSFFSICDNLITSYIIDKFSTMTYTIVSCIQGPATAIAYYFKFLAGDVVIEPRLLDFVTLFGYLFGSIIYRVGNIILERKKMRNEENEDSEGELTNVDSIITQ

## CCN(CC)CCCC(C)Nc1ccnc2cc(Cl)ccc12 (stereo not shown) [CQ, chloroquine]
10 µM CQ, pH 4.5, individual replicates (Fig 4a)
  PfCRTDd2 transport activity 10 µM CQ pH 4.5: 0.37 pmol oocyte-1 h-1 and 0.31 pmol oocyte-1 h-1 and 0.76 pmol oocyte-1 h-1 and 0.49 pmol oocyte-1 h-1
10 µM CQ, pH 5.0, 60 min
  PfCRTDd2 transport activity: 0.54 pmol oocyte-1 h-1
10 µM CQ, pH 5.0, individual replicates (Fig 4a)
  PfCRTDd2 transport activity 10 µM CQ pH 5.0: 0.58 pmol oocyte-1 h-1 and 0.59 pmol oocyte-1 h-1 and 0.45 pmol oocyte-1 h-1
10 µM CQ, pH 5.5, 60 min
  PfCRTDd2 transport activity: 0.69 pmol oocyte-1 h-1
10 µM CQ, pH 5.5, individual replicates (Fig 4a)
  PfCRTDd2 transport activity 10 µM CQ pH 5.5: 0.67 pmol oocyte-1 h-1 and 0.82 pmol oocyte-1 h-1 and 0.59 pmol oocyte-1 h-1 and 0.68 pmol oocyte-1 h-1
10 µM CQ, pH 6.0, 60 min
  PfCRTDd2 transport activity: 0.94 pmol oocyte-1 h-1 and 0.95 pmol oocyte-1 h-1 and 0.80 pmol oocyte-1 h-1 and 1.08 pmol oocyte-1 h-1
10 µM CQ, pH 6.0, individual replicates (Fig 4a)
  PfCRTDd2 transport activity 10 µM CQ pH 6.0: 0.95 pmol oocyte-1 h-1 and 0.80 pmol oocyte-1 h-1 and 1.08 pmol oocyte-1 h-1
10 µM CQ, time 0 min
  PfCRTDd2-mediated CQ transport activity: 0.00 pmol oocyte-1
10 µM CQ, time 30 min
  PfCRTDd2-mediated CQ transport activity: 0.73 pmol oocyte-1
10 µM CQ, time 60 min
  PfCRTDd2-mediated CQ transport activity: 1.10 pmol oocyte-1
10 µM CQ, time 90 min
  PfCRTDd2-mediated CQ transport activity: 2.55 pmol oocyte-1
10 µM CQ
  v-1 pH 4.5: 2.08 (pmol oocyte-1 h-1)-1
  v-1 pH 5.0: 1.85 (pmol oocyte-1 h-1)-1
  v-1 pH 5.5: 1.45 (pmol oocyte-1 h-1)-1
  v-1 pH 6.0: 1.06 (pmol oocyte-1 h-1)-1
50 µM CQ, pH 4.5, individual replicates (Fig 4a)
  PfCRTDd2 transport activity 50 µM CQ pH 4.5: 0.97 pmol oocyte-1 h-1 and 2.03 pmol oocyte-1 h-1 and 1.14 pmol oocyte-1 h-1 and 1.28 pmol oocyte-1 h-1
50 µM CQ, pH 5.0, individual replicates (Fig 4a)
  PfCRTDd2 transport activity 50 µM CQ pH 5.0: 1.93 pmol oocyte-1 h-1 and 2.00 pmol oocyte-1 h-1 and 3.15 pmol oocyte-1 h-1 and 1.59 pmol oocyte-1 h-1 and 2.59 pmol oocyte-1 h-1 and 2.54 pmol oocyte-1 h-1 and 1.86 pmol oocyte-1 h-1 and 2.77 pmol oocyte-1 h-1 and 2.58 pmol oocyte-1 h-1 and 3.10 pmol oocyte-1 h-1
50 µM CQ, pH 5.5, individual replicates (Fig 4a)
  PfCRTDd2 transport activity 50 µM CQ pH 5.5: 2.14 pmol oocyte-1 h-1 and 3.86 pmol oocyte-1 h-1 and 4.54 pmol oocyte-1 h-1 and 3.39 pmol oocyte-1 h-1 and 3.66 pmol oocyte-1 h-1 and 1.74 pmol oocyte-1 h-1 and 6.45 pmol oocyte-1 h-1 and 4.72 pmol oocyte-1 h-1 and 2.44 pmol oocyte-1 h-1 and 3.17 pmol oocyte-1 h-1 and 4.57 pmol oocyte-1 h-1 and 4.41 pmol oocyte-1 h-1 and 3.78 pmol oocyte-1 h-1
50 µM CQ, pH 6.0, individual replicates (Fig 4a)
  PfCRTDd2 transport activity 50 µM CQ pH 6.0: 4.84 pmol oocyte-1 h-1 and 4.32 pmol oocyte-1 h-1 and 4.63 pmol oocyte-1 h-1
50 µM CQ, time 0 min
  PfCRTDd2-mediated CQ transport activity: 0.00 pmol oocyte-1
50 µM CQ, time 30 min
  PfCRTDd2-mediated CQ transport activity: 3.63 pmol oocyte-1
50 µM CQ, time 60 min
  PfCRTDd2-mediated CQ transport activity: 5.55 pmol oocyte-1
50 µM CQ, time 90 min
  PfCRTDd2-mediated CQ transport activity: 7.51 pmol oocyte-1
50 µM CQ
  v-1 pH 4.5: 0.52 (pmol oocyte-1 h-1)-1
  v-1 pH 5.0: 0.43 (pmol oocyte-1 h-1)-1
  v-1 pH 5.5: 0.27 (pmol oocyte-1 h-1)-1
  v-1 pH 6.0: 0.22 (pmol oocyte-1 h-1)-1
100 µM CQ, pH 4.5, 60 min
  PfCRTDd2 transport activity: 5.17 pmol oocyte-1 h-1 and 4.60 pmol oocyte-1 h-1 and 5.99 pmol oocyte-1 h-1 and 5.32 pmol oocyte-1 h-1 and 4.77 pmol oocyte-1 h-1
100 µM CQ, pH 4.5, individual replicates (Fig 4a)
  PfCRTDd2 transport activity 100 µM CQ pH 4.5: 4.60 pmol oocyte-1 h-1 and 5.99 pmol oocyte-1 h-1 and 5.32 pmol oocyte-1 h-1 and 4.77 pmol oocyte-1 h-1
100 µM CQ, pH 5.0, 60 min
  PfCRTDd2 transport activity: 5.48 pmol oocyte-1 h-1
100 µM CQ, pH 5.0, individual replicates (Fig 4a)
  PfCRTDd2 transport activity 100 µM CQ pH 5.0: 4.33 pmol oocyte-1 h-1 and 6.22 pmol oocyte-1 h-1 and 5.90 pmol oocyte-1 h-1
100 µM CQ, pH 5.5, 60 min
  PfCRTDd2 transport activity: 7.61 pmol oocyte-1 h-1
100 µM CQ, pH 5.5, individual replicates (Fig 4a)
  PfCRTDd2 transport activity 100 µM CQ pH 5.5: 6.37 pmol oocyte-1 h-1 and 9.40 pmol oocyte-1 h-1 and 7.07 pmol oocyte-1 h-1
100 µM CQ, pH 6.0, 60 min
  PfCRTDd2 transport activity: 9.42 pmol oocyte-1 h-1 and 10.41 pmol oocyte-1 h-1 and 9.48 pmol oocyte-1 h-1 and 8.36 pmol oocyte-1 h-1
100 µM CQ, pH 6.0, individual replicates (Fig 4a)
  PfCRTDd2 transport activity 100 µM CQ pH 6.0: 10.41 pmol oocyte-1 h-1 and 9.48 pmol oocyte-1 h-1 and 8.36 pmol oocyte-1 h-1
100 µM CQ, time 0 min
  PfCRTDd2-mediated CQ transport activity: 0.00 pmol oocyte-1
100 µM CQ, time 30 min
  PfCRTDd2-mediated CQ transport activity: 5.73 pmol oocyte-1
100 µM CQ, time 60 min
  PfCRTDd2-mediated CQ transport activity: 8.29 pmol oocyte-1
100 µM CQ, time 90 min
  PfCRTDd2-mediated CQ transport activity: 9.71 pmol oocyte-1
100 µM CQ
  v-1 pH 4.5: 0.19 (pmol oocyte-1 h-1)-1
  v-1 pH 5.0: 0.18 (pmol oocyte-1 h-1)-1
  v-1 pH 5.5: 0.13 (pmol oocyte-1 h-1)-1
  v-1 pH 6.0: 0.11 (pmol oocyte-1 h-1)-1
200 µM CQ, pH 4.5, 60 min
  PfCRTDd2 transport activity: 7.21 pmol oocyte-1 h-1 and 7.32 pmol oocyte-1 h-1 and 8.24 pmol oocyte-1 h-1 and 6.30 pmol oocyte-1 h-1 and 7.78 pmol oocyte-1 h-1 and 6.41 pmol oocyte-1 h-1
200 µM CQ, pH 4.5, individual replicates (Fig 4a)
  PfCRTDd2 transport activity 200 µM CQ pH 4.5: 7.32 pmol oocyte-1 h-1 and 8.24 pmol oocyte-1 h-1 and 6.30 pmol oocyte-1 h-1 and 7.78 pmol oocyte-1 h-1 and 6.41 pmol oocyte-1 h-1
200 µM CQ, pH 5.0, 60 min
  PfCRTDd2 transport activity: 9.98 pmol oocyte-1 h-1
200 µM CQ, pH 5.0, individual replicates (Fig 4a)
  PfCRTDd2 transport activity 200 µM CQ pH 5.0: 9.29 pmol oocyte-1 h-1 and 10.18 pmol oocyte-1 h-1 and 10.48 pmol oocyte-1 h-1
200 µM CQ, pH 5.5, 60 min
  PfCRTDd2 transport activity: 10.75 pmol oocyte-1 h-1
200 µM CQ, pH 5.5, individual replicates (Fig 4a)
  PfCRTDd2 transport activity 200 µM CQ pH 5.5: 11.07 pmol oocyte-1 h-1 and 10.25 pmol oocyte-1 h-1 and 11.13 pmol oocyte-1 h-1 and 10.55 pmol oocyte-1 h-1
200 µM CQ, pH 6.0, 60 min
  PfCRTDd2 transport activity: 13.53 pmol oocyte-1 h-1 and 12.77 pmol oocyte-1 h-1 and 14.22 pmol oocyte-1 h-1 and 13.59 pmol oocyte-1 h-1
200 µM CQ, pH 6.0, individual replicates (Fig 4a)
  PfCRTDd2 transport activity 200 µM CQ pH 6.0: 12.77 pmol oocyte-1 h-1 and 14.22 pmol oocyte-1 h-1 and 13.59 pmol oocyte-1 h-1
200 µM CQ, time 0 min
  PfCRTDd2-mediated CQ transport activity: 0.00 pmol oocyte-1
200 µM CQ, time 30 min
  PfCRTDd2-mediated CQ transport activity: 9.39 pmol oocyte-1
200 µM CQ, time 60 min
  PfCRTDd2-mediated CQ transport activity: 15.25 pmol oocyte-1
200 µM CQ, time 90 min
  PfCRTDd2-mediated CQ transport activity: 18.81 pmol oocyte-1
200 µM CQ
  v-1 pH 4.5: 0.14 (pmol oocyte-1 h-1)-1
  v-1 pH 5.0: 0.10 (pmol oocyte-1 h-1)-1
  v-1 pH 5.5: 0.09 (pmol oocyte-1 h-1)-1
  v-1 pH 6.0: 0.0739 (pmol oocyte-1 h-1)-1
300 µM CQ, pH 4.5, 60 min
  PfCRTDd2 transport activity: 8.79 pmol oocyte-1 h-1 and 8.53 pmol oocyte-1 h-1 and 10.77 pmol oocyte-1 h-1 and 6.50 pmol oocyte-1 h-1 and 9.34 pmol oocyte-1 h-1
300 µM CQ, pH 4.5, individual replicates (Fig 4a)
  PfCRTDd2 transport activity 300 µM CQ pH 4.5: 8.53 pmol oocyte-1 h-1 and 10.77 pmol oocyte-1 h-1 and 6.50 pmol oocyte-1 h-1 and 9.34 pmol oocyte-1 h-1
300 µM CQ, pH 5.0, 60 min
  PfCRTDd2 transport activity: 10.68 pmol oocyte-1 h-1
300 µM CQ, pH 5.0, individual replicates (Fig 4a)
  PfCRTDd2 transport activity 300 µM CQ pH 5.0: 10.67 pmol oocyte-1 h-1 and 9.04 pmol oocyte-1 h-1 and 12.33 pmol oocyte-1 h-1
300 µM CQ, pH 5.5, 60 min
  PfCRTDd2 transport activity: 12.81 pmol oocyte-1 h-1
300 µM CQ, pH 5.5, individual replicates (Fig 4a)
  PfCRTDd2 transport activity 300 µM CQ pH 5.5: 13.73 pmol oocyte-1 h-1 and 12.01 pmol oocyte-1 h-1 and 12.69 pmol oocyte-1 h-1
300 µM CQ, pH 6.0, 60 min
  PfCRTDd2 transport activity: 15.42 pmol oocyte-1 h-1 and 15.31 pmol oocyte-1 h-1 and 16.86 pmol oocyte-1 h-1 and 14.10 pmol oocyte-1 h-1
300 µM CQ, pH 6.0, individual replicates (Fig 4a)
  PfCRTDd2 transport activity 300 µM CQ pH 6.0: 15.31 pmol oocyte-1 h-1 and 16.86 pmol oocyte-1 h-1 and 14.10 pmol oocyte-1 h-1
300 µM CQ, time 0 min
  PfCRTDd2-mediated CQ transport activity: 0.00 pmol oocyte-1
300 µM CQ, time 30 min
  PfCRTDd2-mediated CQ transport activity: 9.78 pmol oocyte-1
300 µM CQ, time 60 min
  PfCRTDd2-mediated CQ transport activity: 14.63 pmol oocyte-1
